Reference: US11234985B2, “Antiviral therapy” (VIIV HEALTHCARE COMPANY, priority 2010, dated 2022)

Test system: HIV-1 (strain IIIB)
Test: Antiviral HIV activity in combination, tetrazolium-based (MTS) colorimetric checkerboard assay in MT-4 cells
Type: cell-based
Settings: HIV-1 IIIB infected MT-4 cells, 5 days
Description: Antiviral HIV activity was measured by means of a tetrazolium-based colorimetric procedure in the human T-cell leukemia virus (HTLV-1) transformed cell line MT-4. Aliquots of test compound were diluted vertically across a deep-well master assay plate, in medium (RPMI 1640, 10% vol./vol. fetal bovine serum (FBS), and 10 μg/mL gentamicin), at concentrations that were approximately 40-fold higher than the final assay concentration. Serial dilutions were made at either 1:2 or 1:3.16 ratios. HIV inhibitors were diluted horizontally across master assay plates, also in concentrations that were approximately 40-fold higher than the final assay concentration. Small aliquots of both the vertically-diluted and the horizontally-diluted compounds were combined in daughter plates using an automated 96-well pipetting system (RapidPlate-96, Zymark Corp.). Checkerboard style dilutions were arranged so that every concentration of test compound was tested in the presence and absence of every concentration of the HIV inhibitors. Anti-HIV activity tests were performed in triplicate assays, or more, of each combination. Exponentially growing MT-4 cells were harvested and centrifuged at 1,000 rpm for 10 minutes in a Jouan centrifuge (Model CR 4 12). Cell pellets were re-suspended in fresh medium (RPMI 1640, 20% vol./vol. FBS, 20% vol./vol. IL-2, and 10 μg/mL gentamicin) to a density of 1.25×10^6 cells/mL. Cell aliquots were infected by the addition of HIV-1 (strain IIIB) diluted to give a viral multiplicity of infection (MOI) of 73 pfU per 1×10^4 cells. A similar cell aliquot was diluted with medium to provide a mock-infected control. Cell infection was allowed to proceed for 1 hour at 37° C. in a tissue culture incubator with humidified 5% CO2 atmosphere. After the 1 hour incubation the virus/cell suspension was added to each well of the plates containing pre-diluted compounds. Plates were then placed in a tissue culture incubator with humidified 5% CO2 for 5 days. At the end of the incubation period, […] of CellTiter 96 MTS reagent (Promega no. G3581) was added to each well of the incubation plate. Plates were incubated at 37° C. for 2 to 3 hours to allow for color development. O.D. was measured at […] using a microplate absorbance reader (Tecan no. 20-300).
HIV-1 strain IIIB, wild-type laboratory strain, virus titer=6.896 E4 TCID50/mL.
Although some assay formats might theoretically miss antagonism due to combination cytotoxicity, the approach described here should not miss an antagonistic effect. The readout in the MT-4 cell assay utilizes MTS, a tetrazolium-based staining reagent where changes in optical density (O.D.) of the reagent are used to estimate the total cell number remaining after treatment. Final MT-4 cell numbers may decrease due to two effects. First, an HIV-induced cytotoxicity may occur when HIV kills greater than 75% of the MT-4 cells during the 5 days following infection. Second, a compound-induced cytotoxicity may occur, where the compound either directly kills the MT-4 cells or prevents cell growth (stasis) over the 5 days in either infected or uninfected cells. In either of these situations the O.D. is low as compared with infected cells protected by anti-HIV-1 compounds or relative to untreated and uninfected control cells. Since both cytotoxic effects and antagonism of anti-HIV activity would lead to lower O.D. we should not miss an antagonistic effect due to combination cytotoxicity, but could underestimate synergistic combinations.
Within assay combination cytotoxicity was evaluated by comparing wells containing the uninfected MT-4 cells from the assay plates that contained the highest concentration of test compound or the comparator compound, with wells containing […] MT-4 cells under the corresponding highest combination concentrations. For each of these values there is one well per assay plate and thus at least 3 wells per combination assay. […]

C[C@@H]1CCO[C@H]2Cn3cc(C(=O)NCc4ccc(F)cc4F)c(=O)c(O)c3C(=O)N12 [formula (I)]
interaction (deviation from dosewise additivity) of anti-HIV activity (in combination with abacavir): synergistic
interaction (deviation from dosewise additivity) of anti-HIV activity (in combination with adefovir): additive
interaction (deviation from dosewise additivity) of anti-HIV activity (in combination with amprenavir): synergistic
interaction (deviation from dosewise additivity) of anti-HIV activity (in combination with efavirenz): synergistic
interaction (deviation from dosewise additivity) of anti-HIV activity (in combination with enfuvirtide): synergistic
interaction (deviation from dosewise additivity) of anti-HIV activity (in combination with lopinavir): synergistic
interaction (deviation from dosewise additivity) of anti-HIV activity (in combination with maraviroc): additive
interaction (deviation from dosewise additivity) of anti-HIV activity (in combination with nevirapine): synergistic
interaction (deviation from dosewise additivity) of anti-HIV activity (in combination with raltegravir): additive
interaction (deviation from dosewise additivity) of anti-HIV activity (in combination with stavudine): synergistic
effect of the presence of ribavirin on anti-HIV activity (in the presence of ribavirin): not affected
